Like-named read-outs stand apart in the source and are kept apart here. Values belong to the compound of their own block, whether it stands above or below them.
Experiments:
[1] = in vitro; conditions: rat
[2] = in vitro; conditions: rat, gh3-tre-luc cells, AC50 (uM) modified / 1000
[3] = system: Tox21 cell viability assays (different cell types); assay: Global cytotoxicity: eighteen Tox21 cell viability assays; type: cell-based
[4] = as above; type: cell-based
[5] = system: thyroid hormone receptor (endogenous TRα and TRβ); assay: GH3-TRE-Antag primary qHTS, luciferase reporter, antagonist mode with 1 nM T3 (TOX21_TR_LUC_GH3_Antagonist, aeid 804); type: cell-based, rat; conditions: antagonist mode, 1 nM T3; read-out: GH3-TRE-Antag AC50
[6] = system: thyroid hormone receptor (endogenous TRα and TRβ); assay: GH3-TRE-Ag primary qHTS, luciferase reporter, agonist mode (TOX21_TR_LUC_GH3_Agonist, aeid 803); type: cell-based, rat; conditions: for AC50: antagonist candidates, inactive samples arbitrarily set to AC50=1,000 μM, read-out: GH3-TRE-Ag AC50
[7] = GH3-TRE-Via cell viability, CellTiter-Fluor (TOX21_TR_LUC_GH3_Antagonist_viability, aeid 805); conditions: rat
[8] = system: GH3-TRE-Luc cell line; assay: as above
[9] = target: T1, human TRβ ligand-binding domain (Homo sapiens, UniProt P10828); assay: TRb-coa LanthaScreen TR-FRET coactivator (SRC-2 peptide) recruitment, agonist (TOX21_TRB_COA_Agonist_Followup_ratio, aeid 2244); type: biochemical; parameters: host or cells: GeneBLAzer UAS-bla HEK 293T
T1 sequence (P10828 217-461 limits assumed): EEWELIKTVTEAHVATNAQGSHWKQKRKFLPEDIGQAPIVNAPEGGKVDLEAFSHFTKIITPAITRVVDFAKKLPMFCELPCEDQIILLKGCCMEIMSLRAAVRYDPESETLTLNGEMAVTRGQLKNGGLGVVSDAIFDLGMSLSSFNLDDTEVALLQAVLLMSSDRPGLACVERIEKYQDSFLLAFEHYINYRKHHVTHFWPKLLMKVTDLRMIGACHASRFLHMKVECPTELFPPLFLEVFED

[10] = system: thyroid hormone receptor (endogenous TRα and TRβ); assay: GH3-TRE-Ag-Followup confirmation (TOX21_TR_LUC_GH3_Agonist_Followup, aeid 2226); type: cell-based, rat
[11] = target: T1, human TRβ ligand-binding domain; assay: TRb-bla agonist mammalian one-hybrid beta-lactamase assay (TOX21_TRB_BLA_Agonist_Followup_ratio, aeid 2236); type: cell-based; parameters: host or cells: GeneBLAzer UAS-bla HEK 293T
[12] = system: thyroid hormone receptor (TR); assay: Classification of TR actives across characterization assays (TR-Ag / RXR-Ag; TR model binary)
Procedure, shortened: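 GH3-TRE qHTS agonist, antagonist and viability modes over 8,305 compounds; 84 candidates rescreened in GH3-TRE-Ag, TRβ- and RXRα-UAS-bla HEK 293T one-hybrid assays, HEK293T viability, and TRα/TRβ coactivator recruitment. Actives classified binary after removing pharmaceuticals.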

[13] = target: T2, TRα ligand-binding domain (Homo sapiens, UniProt P10827); assay: TRa-coa LanthaScreen TR-FRET coactivator (SRC-2 peptide) recruitment, agonist (TOX21_TRA_COA_Agonist_Followup_ratio, aeid 2230); type: biochemical
T2 construct: the receptor LBDs expressed as glutathione S-transferase (GST) fusion proteins; purchased
T2 sequence (P10827 163-410 isoform P10827-2 limits assumed, other chains not shown): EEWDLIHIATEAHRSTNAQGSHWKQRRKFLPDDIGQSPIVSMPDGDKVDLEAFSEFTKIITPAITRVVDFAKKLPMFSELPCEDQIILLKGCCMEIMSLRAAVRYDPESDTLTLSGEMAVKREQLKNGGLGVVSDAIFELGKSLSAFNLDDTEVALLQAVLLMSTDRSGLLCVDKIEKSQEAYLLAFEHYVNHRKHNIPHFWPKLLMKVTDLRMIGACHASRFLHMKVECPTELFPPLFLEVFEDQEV

[14] = target: T3, human RXRα (Homo sapiens, UniProt P19793); assay: RXRa-bla-Ag mammalian one-hybrid beta-lactamase assay (TOX21_TR_RXR_BLA_Agonist_Followup_ratio, aeid 2253); type: cell-based
T3 construct: host or cells: GeneBLAzer UAS-bla HEK 293T
T3 sequence (P19793 227-458 limits assumed): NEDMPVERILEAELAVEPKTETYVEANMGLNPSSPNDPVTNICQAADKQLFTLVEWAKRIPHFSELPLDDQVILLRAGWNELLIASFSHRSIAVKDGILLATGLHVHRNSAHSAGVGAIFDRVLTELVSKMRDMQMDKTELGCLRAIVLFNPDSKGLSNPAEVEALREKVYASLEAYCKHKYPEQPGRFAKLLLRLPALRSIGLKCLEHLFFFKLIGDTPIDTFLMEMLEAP

[15] = percentage of 18 Tox21 viability assays with hitc=1
[16] = median over 18 Tox21 cell viability assays, inactive set to 1,000, read-out: Global cytotoxicity AC50 median

AC50 at 24 h [1]: > 92 µM
Structure (SMILES): Cc1cccc(Nc2ccccc2C(=O)O)c1C [Mefenamic acid]
CC50 at 24 h [2]: > 50 µM
Active in global cytotoxicity assays (%) [3]: 4.5%
active rate in Tox21 viability/cytotoxicity assays [3]: 4.5%
AC50 [4]: 50.8 µM
AC50 [5]: 19.5 µM
AC50 [6]: > 92 µM

AC50 at 24 h [1]: 14.6 µM
Structure (SMILES): CN(C)c1ccc(/N=N/c2ccccc2C(=O)O)cc1 [Methyl red]
Active in global cytotoxicity assays (%) [3]: 48.5%
AC50 [4]: 48.5 µM
AC50 [5]: 8.79 µM
AC50 [6]: > 92 µM

Structure (SMILES): CCCc1c(OCCCCc2nnn[nH]2)ccc(C(C)=O)c1O [Tomelukast, reference compound]
AC50 at 24 h [7]: > 92 µM
Active in global cytotoxicity assays (%) [3, 15]: 9.1%
AC50 [4, 16]: 14.4 µM
AC50 [6]: > 92 µM

Structure (SMILES): CCCCCOc1ccc(C2SC(=O)NC2=O)cc1OCC (centres unmarked) [Risarestat, reference compound]
cytotoxicity in GH3 viability assay [8]: lacked cytotoxicity
AC50 at 24 h [7]: > 92 µM
Active in global cytotoxicity assays (%) [3, 15]: 11.9%
AC50 [4, 16]: 16.4 µM
AC50 [6]: > 92 µM

Structure (SMILES): c1cc(N(CC2CO2)CC2CO2)ccc1Cc1ccc(N(CC2CO2)CC2CO2)cc1 (centres unmarked) [4,4ʹ-Methylenebis(N,N-diglycidylaniline)]
AC50 [1]: 11.1 µM
Active in global cytotoxicity assays (%) [3, 15]: 59.1%
AC50 [4, 16]: 45.3 µM
AC50 [5]: 8.03 µM
AC50 [6]: > 92 µM

Structure (SMILES): C[C@]12CC[C@H]3C(=CCc4cc(O)ccc43)[C@@H]1CCC2=O [Equilin, reference compound]
AC50 ([9]; cell-free coactivator recruitment, read-out: TRb-coa-Ag AC50): > 92 µM
TRb-coa hitc ([9]; hit call from tcpl, agonist): 0
Emax ([9]; read-out: EMax (% of Control) trb-coa-agonist-followup-1): -0.4%
TR_LUC_GH3_Antagonist_viability hitc ([8]; hit call from tcpl): 1
AC50 at 24 h [7]: 85.1 µM
GLOBAL CYTOTOXICITY cytotox.number_Active ([3]; # active of 18 total Tox21 viability assays): 0
GLOBAL CYTOTOXICITY cytotox.median ([3]; median over Tox21 viability assays): >92
AC50 ([4]; median over 18 Tox21 cell viability assays (Judson et al. 2016, invitrodb_v2), read-out: Global cytotoxicity AC50 median): > 92 µM
EMax (% of Control) gh3-tre-agonist-followup-1_agonist [10]: 6.3 % of Control
AC50 ([10]; confirmation, agonist mode, read-out: GH3-TRE-Ag-Followup AC50): > 92 µM
GH3-TRE-Ag-Followup hitc ([10]; hit call from tcpl): 0
AC50 ([11]; HEK 293T one-hybrid, agonist mode, read-out: TRb-bla-Ag AC50): > 92 µM
TRb-bla hitc ([11]; hit call from tcpl, agonist): 0
Emax ([11]; read-out: EMax (% of Control) trb-bla-agonist-followup-1): 13.5%
Categorization Code ([12]; TR agonist characterization): RXR-Ag
Classification ([12]; TR-Ag = TR agonist, RXR-Ag = RXR agonist): RXR-Ag
AC50 ([13]; cell-free coactivator recruitment, read-out: TRa-coa-Ag AC50): > 92 µM
TRa-coa hitc ([13]; hit call from tcpl, agonist): 0
Emax ([13]; read-out: EMax (% of Control) tra-coa-agonist-followup-1): 1.7%
AC50 ([14]; HEK 293T one-hybrid, agonist mode, inactive set to 1,000, read-out: RXRa-bla-Ag AC50): 986 nM
tr-followup-rxr-bla-agonist-1 hitc ([14]; hit call from tcpl): 1
Emax ([14]; read-out: EMax (% of Control) tr-followup-rxr-bla-agonist-1): 61.3%
EMax (% of Control) gh3-tre-agonist [6]: 90.8 % of Control
GH3-TRE-Ag AC50 hitc ([6]; hit call from tcpl): 1

AC50 at 24 h [1]: 0.037 µM
Structure (SMILES): CC(C)C[C@H](NC(=O)[C@H](CCc1ccccc1)NC(=O)CN1CCOCC1)C(=O)N[C@@H](Cc1ccccc1)C(=O)N[C@@H](CC(C)C)C(=O)[C@@]1(C)CO1 [Carfilzomib]
Active in global cytotoxicity assays (%) [3]: 64.4%
active rate in Tox21 viability/cytotoxicity assays [3]: 64%
AC50 [4]: 0.46 µM
AC50 [5]: 0.025 µM
AC50 [6]: > 92 µM
